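Method: 48-hour compound exposure of cells in 96-well plates, five concentrations, linear interpolation of endpoints. Definition used: TGI = concentration required for complete inhibition of growth.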

TGI data for 4 compounds are collected here from PubChem BioAssay (NCI).

Common to all, as to experiment: NCI-60 cell line screen, 48 h
In test [1] the test system is HCT-15 colon.
The subject of test [2] is NCI-H522 lung.
Test [3] has as its system DLD-1 colon.
The test system of test [4] is 786-0 renal.
In test [5] the test system is KM12 colon.
In test [6] the test system is HOP-92 NSCLC.
The subject of test [7] is UACC-62 melanoma.
The subject of test [8] is HT29 colon.
The subject of test [9] is KM20L2 colon.
Test [10] deals with SR leukemia.
Test [11] relates to NCI-H460 lung.
Test [12] concerns UACC-257 melanoma.
For test [13], the system named is SW-620 colon.

Turning to `COC1=CC(=O)c2c(O)c3c(c(O)c2C1=O)C[C@](C)(O)C[C@@H]3O`, the TGI in [1] is 15.8 µM; in test [2], 12.4 µM; in [3] it was 17.2 µM; in test [4], 46.7 µM; in test [5] it was 19 µM; in [6] it was 22.6 µM. Moreover, the TGI in test [7] is 4.66 µM; in test [8], 8.05 µM; in test [9], greater than 100 µM; in test [10], 12.1 µM; in test [11] it was 6.84 µM; in test [12], 5.28 µM. This compound had a TGI in test [13] of 14 µM.
Take `C#CCSc1nc(N)c2ncn(C3OC(COP(=O)(O)O)C(O)C3O)c2n1` (stereo not given): the TGI in test [1], in [2], in [3], in test [4], in test [5] and in [6] was greater than 239 µM each time. In addition, the TGI in [7], in test [8], in test [9], in test [10], in [11] and in [12] was greater than 239 µM in each case. Besides, the TGI in [13] is greater than 239 µM.
As to `O=[N+]([O-])c1ccc2c(Nc3ccccc3-c3ccccc3Nc3c4ccccc4nc4cc([N+](=O)[O-])ccc34)c3ccccc3nc2c1`, the TGI was 17.6 µM in [1]; 17.4 µM in [2]; greater than 48.4 µM in test [3]; 13.4 µM in test [4]; 36.9 µM in test [5]; 24.4 µM in [6]. Further, the TGI in test [7] is 11.5 µM; in test [8], 26.7 µM; in test [9], greater than 65 µM; in [10] it was 15.4 µM; in [11] it was 15.3 µM; in [12], 49.8 µM. For the same compound, the TGI in test [13] came to 11.1 µM.
With `CN1Cc2c(nc(-c3ccc(Br)cc3)c[n+]2[O-])N(C)C1`, the TGI in [2], in test [3], in [4], in test [5], in test [6] and in test [8] was greater than 100 µM in each case. Further, the TGI in test [9], in test [10], in test [11], in test [12] and in test [13] was greater than 100 µM each time.
